Measurements reported in patent publication US20090118331A1, “Use of Lobeline Epimers in the Treatment of Central Nervous System Diseases, Pathologies, and Drug Abuse” (priority 2007, published 2009).

Assays:
[1] = Lobeline conversion to epimer in the buffer system used at 37° C. in the VMAT2 uptake study (HPLC); format: physicochemical; conditions: VMAT2 uptake buffer, 37° C.
clinical = conditions: human, in vivo
Description: Three consecutive doses of lobeline (either 30, 45 and 45 mg in the first study group, or 60, 60 and 60 mg in the second group) were administered to human volunteers at 0800, 1200 and 1600 over two full inpatient days. The pharmacokinetics of lobeline and epimer were then assessed in each subject. […] A crude index of accumulation (non-steady state) was obtained by dividing the sixth dose trough concentration by that observed for the fifth dose.

[2] = Lobeline conversion to epimer in the HEPES buffer system used at 25° C. in the [^3H]DTBZ binding study (HPLC); format: physicochemical; conditions: for Epimer %: [^3H]DTBZ binding buffer, 25° C.
Description: The initial dissolution of lobeline in water was followed by a 1:1 dilution of this stock solution in the appropriate HEPES buffer system, incubation at the prescribed temperature, and HPLC assay of each epimer and potential degradants over 2 hour incubation.
After 2 hours, the 25° C.

in vivo = conditions: for AUC(0-inf) / AUC(0-t) / Cmax / MRT last / Tmax / Vd / clearance / half-life: rat, in vivo
Description: Here, serial doses of lobeline were administered to male and female rats intravenously, subcutaneously or orally, and the pharmacokinetic profiles of the parent lobeline and its epimer were monitored in plasma.

`CN1[C@H](CC(=O)c2ccccc2)CCC[C@H]1C[C@H](O)c1ccccc1` (single isomer, unassigned; epimer 2) [Epimer, 2-[6S-(2S-hydroxy-2-phenyl-ethyl)-1-methyl-piperidin-2S-yl]-1-phenyl-ethanone] gave an Epimer % ([1]; T90, sample age 1:31) of 26.9%, an Epimer % ([1]; T100, sample age 1:40) of 28.0% and an Epimer % ([1]; T110, sample age 1:50) of 29.2%. For the same compound, the Epimer % ([1]; T120, sample age 2:00) was 30.3%, the half-life (clinical) was 208 min and the “time at which geometric mean plasma concentration peaked” value (clinical) was 1.38 h. The “final component concentration (as a function of the area under the curve)” value ([2]; HEPES [^3H]DTBZ binding buffer, after 2 hours at 25° C.) was 17%, the Epimer % ([2]; T0, sample age 0:01) was 1.54% and the Epimer % ([2]; T5, sample age 0:06) was 2.16%. It also gave an Epimer % ([2]; T10, sample age 0:10) of 3.34%, an Epimer % ([2]; T15, sample age 0:15) of 4.55% and an Epimer % ([2]; T20, sample age 0:20) of 5.27%. The Epimer % ([2]; T25, sample age 0:25) was 5.91%, the Epimer % ([2]; T30, sample age 0:31) was 7.18% and the Epimer % ([2]; T35, sample age 0:35) was 7.30%. For the same compound, the Epimer % ([2]; T40, sample age 0:40) was 8.66%, the Epimer % ([2]; T45, sample age 0:45) was 9.31% and the Epimer % ([2]; T50, sample age 0:50) was 9.94%. For the same compound, the Epimer % ([2]; T55, sample age 0:55) was 10.2%, the Epimer % ([2]; T60, sample age 1:00) was 10.9% and the Epimer % ([2]; T70, sample age 1:10) was 11.9%. The Epimer % ([2]; T80, sample age 1:20) was 13.1%, the Epimer % ([2]; T90, sample age 1:31) was 14.1% and the Epimer % ([2]; T100, sample age 1:40) was 15.2%. For the same compound, the Epimer % ([2]; T110, sample age 1:50) was 16.1%, the Epimer % ([2]; T120, sample age 2:01) was 17.0% and the AUC(0-inf) (in vivo; female, iv, 2 mg/kg) was 76.9 ng·h/mL. For the same compound, the AUC(0-t) (in vivo; female, iv, 2 mg/kg) was 75.4 ng·h/mL, the Cmax (in vivo; female, iv, 2 mg/kg) was 53.9 ng/mL and the MRT last (in vivo; female, iv, 2 mg/kg) was 1.6 h. For the same compound, the Tmax (in vivo; female, iv, 2 mg/kg) was 15 min, the Vd (in vivo; female, iv, 2 mg/kg) was 45.9 L/kg and the clearance (in vivo; female, iv, 2 mg/kg) was 0.433 mL/min/kg. It also gave a half-life (in vivo; female, iv, 2 mg/kg) of 88.2 min, an AUC(0-inf) (in vivo; female, po, 20 mg/kg) of 40.9 ng·h/mL and an AUC(0-t) (in vivo; female, po, 20 mg/kg) of 39.3 ng·h/mL. It also gave a Cmax (in vivo; female, po, 20 mg/kg) of 23.8 ng/mL, an MRT last (in vivo; female, po, 20 mg/kg) of 2.16 h and a Tmax (in vivo; female, po, 20 mg/kg) of 30 min. For the same compound, the half-life (in vivo; female, po, 20 mg/kg) was 103 min, the AUC(0-inf) (in vivo; female, sc, 3 mg/kg) was 128 ng·h/mL and the AUC(0-t) (in vivo; female, sc, 3 mg/kg) was 127 ng·h/mL. For the same compound, the Cmax (in vivo; female, sc, 3 mg/kg) was 85 ng/mL, the MRT last (in vivo; female, sc, 3 mg/kg) was 1.5 h and the Tmax (in vivo; female, sc, 3 mg/kg) was 30 min. It also gave a half-life (in vivo; female, sc, 3 mg/kg) of 66.6 min, an AUC(0-inf) (in vivo; male, iv, 2 mg/kg) of 69.7 ng·h/mL and an AUC(0-t) (in vivo; male, iv, 2 mg/kg) of 68.7 ng·h/mL. For the same compound, the Cmax (in vivo; male, iv, 2 mg/kg) was 47.6 ng/mL, the MRT last (in vivo; male, iv, 2 mg/kg) was 1.51 h and the Tmax (in vivo; male, iv, 2 mg/kg) was 15 min. It also gave a Vd (in vivo; male, iv, 2 mg/kg) of 46.3 L/kg, a clearance (in vivo; male, iv, 2 mg/kg) of 0.48 mL/min/kg and a half-life (in vivo; male, iv, 2 mg/kg) of 75.6 min. For the same compound, the AUC(0-inf) (in vivo; male, po, 20 mg/kg) was 54.8 ng·h/mL, the AUC(0-t) (in vivo; male, po, 20 mg/kg) was 54 ng·h/mL and the Cmax (in vivo; male, po, 20 mg/kg) was 49.8 ng/mL. For the same compound, the MRT last (in vivo; male, po, 20 mg/kg) was 1.73 h, the Tmax (in vivo; male, po, 20 mg/kg) was 30 min and the half-life (in vivo; male, po, 20 mg/kg) was 79.2 min. For the same compound, the AUC(0-inf) (in vivo; male, sc, 3 mg/kg) was 109 ng·h/mL, the AUC(0-t) (in vivo; male, sc, 3 mg/kg) was 108 ng·h/mL and the Cmax (in vivo; male, sc, 3 mg/kg) was 54.4 ng/mL. It also gave an MRT last (in vivo; male, sc, 3 mg/kg) of 1.45 h, a Tmax (in vivo; male, sc, 3 mg/kg) of 30 min and a half-life (in vivo; male, sc, 3 mg/kg) of 66.6 min. The “time after lobeline administration within which significant epimer concentrations were achieved in plasma” value (in vivo; rats, irrespective of dose or route) was 15 to 30 min.
